In patent publication US20020198510A1, “Method for nasal application of a medicinal substance” (priority 2001, published 2002):
Entries after “also recorded” stand apart in the source; their conditions may differ. Where two headings read alike, the source gives them in different places.

Experiments:
[1] = Evans Blue Dye distribution after administration into the nose of mice; format: in vivo; design: key to Dye in Stomach / Dye in Lung: -: no dye is present; traces: minimal amounts are present when examined with the unaided eye but that do not clearly show on photographs; yes: dye is clearly visible; +: dye is clearly visible; ++: heavy dye presence; settings: for Dye in Larynx / Dye in Nasal Cavity / Dye in Nose Skin / Dye in Intestine / Dye in Oral Cavity / Dye in Stomach / Dye in Esophagus Lower / Dye in Esophagus Upper / Dye in Trachea Lower / Dye in Trachea Upper / Dye in Lung: 60 min to sacrifice
Method: (§1) To show the distribution of liquid administered through the nose, Evans Blue Dye (0.3%) was administered through a micropipette tip into the nose of mice and chinchillas at various doses, at various levels of sedation or anesthesia, and with the animals in various positions.

[2] = design: species or system chinchillas; settings: in vivo
Method: as §1

[3] = Dye 10 μl single dose, Supine/Supine, anesthesia 200 μl (heavy)
[4] = Dye 10 μl single dose, Upright/Not held, 0 μl (Alert)
[5] = Dye 10 μl single dose, Upright/Not held, anesthesia 200 μl (heavy)
[6] = Dye 20 μl single dose, Supine/Supine, anesthesia 200 μl (heavy)
[7] = Dye 20 μl single dose, Upright/Not held, anesthesia 200 μl (heavy)
[8] = Dye 20 μl, 2 μl/nare at 2 min interval, Supine/Supine, anesthesia 200 μl (heavy)
[9] = Dye 20 μl, 2 μl/nare at 5 min interval, Supine/Supine, anesthesia 200 μl (heavy)
[10] = Dye 20 μl, 2 μl/nare at t = 0, 2, 7, 9 and 11 min, Supine/Supine, anesthesia 200 μl (heavy)
[11] = Dye 30 μl single dose, Prone/Not held, 0 μl (Alert)
[12] = Dye 30 μl single dose, Supine/Supine, anesthesia 200 μl (heavy)
[13] = Dye 30 μl single dose, Upright/Not held, 0 μl (Alert)
[14] = Dye 30 μl single dose, Upright/Not held, anesthesia 120 μl (Mod)
[15] = Dye 30 μl single dose, Upright/Not held, anesthesia 200 μl (heavy)
[16] = Dye 30 μl, 1 drop/5 sec interval, Upright/Not held, anesthesia 200 μl (heavy)
[17] = Dye 30 μl, 2 μl/nare at 5 min interval, Supine/Supine, anesthesia 200 μl (Mod*)
[18] = Dye 30 μl, 2 μl/nare at 5 min interval, Supine/Supine, anesthesia 200 μl (heavy)
[19] = Dye 30 μl, 2 μl/nare at 5 min interval, Supine/Supine, anesthesia 350 μl (heavy)
[20] = Dye 30 μl, 2 μl/nare at 5 min interval, Supine/Supine, anesthesia 400 μl (heavy)
[21] = Dye 30 μl, 5 μl/nare at 10 min interval, Supine/Supine, anesthesia 200 μl (heavy)
[22] = Dye 40 μl single dose, Upright/Not held, anesthesia 200 μl (heavy)
[23] = Dye 40 μl, 2 μl/nare at 5 min interval, Supine/Supine, anesthesia 200 μl (heavy)
[24] = Dye 50 μl single dose, Upright/Not held, 0 μl (Alert)
[25] = Dye 50 μl single dose, Upright/Not held, anesthesia 120 μl (Mod)
[26] = Dye 50 μl single dose, Upright/Not held, anesthesia 200 μl (heavy)
[27] = Dye 50 μl, 5 μl/nare at 30 sec interval, Upright/Not held, anesthesia 120 μl (Mod)

Dye in Larynx [1, 3]: Yes
Dye in Nasal Cavity [1, 3]: Yes
Dye in Nose Skin [1, 3]: Yes
Dye in Intestine [1, 4]: Yes
Dye in Larynx [1, 4]: Yes
Dye in Nasal Cavity [1, 4]: Yes
Dye in Oral Cavity [1, 4]: Yes
Dye in Stomach [1, 4]: + and Traces
Dye in Esophagus Lower [1, 5]: Traces; also recorded: Yes/Yes
Dye in Esophagus Upper [1, 5]: Traces/; also recorded: Yes/Yes
Dye in Larynx [1, 5]: Yes
Dye in Nasal Cavity [1, 5]: Yes
Dye in Nose Skin [1, 5]: Yes
Dye in Oral Cavity [1, 5]: Yes
Dye in Stomach [1, 5]: Traces and +
Dye in Trachea Lower [1, 5]: Traces
Dye in Trachea Upper [1, 5]: Traces/
Dye in Esophagus Upper [1, 6]: Traces
Dye in Larynx [1, 6]: Yes
Dye in Nasal Cavity [1, 6]: Yes
Dye in Nose Skin [1, 6]: Yes
Dye in Oral Cavity [1, 6]: Yes
Dye in Trachea Lower [1, 6]: Traces
Dye in Trachea Upper [1, 6]: Traces/
Dye in Esophagus Lower [1, 7]: Yes/Yes
Dye in Esophagus Upper [1, 7]: Yes/Yes
Dye in Larynx [1, 7]: Yes
Dye in Nasal Cavity [1, 7]: Yes
Dye in Nose Skin [1, 7]: Yes
Dye in Oral Cavity [1, 7]: Yes
Dye in Stomach [1, 7]: +
Dye in Esophagus Lower [1, 8]: Yes/Yes
Dye in Esophagus Upper [1, 8]: Yes/Yes
Dye in Larynx [1, 8]: Yes
Dye in Nasal Cavity [1, 8]: Yes
Dye in Nose Skin [1, 8]: Yes
Dye in Oral Cavity [1, 8]: Yes
Dye in Stomach [1, 8]: +
Dye in Esophagus Upper [1, 9]: Yes
Dye in Larynx [1, 9]: Yes
Dye in Nasal Cavity [1, 9]: Yes
Dye in Nose Skin [1, 9]: Yes
Dye in Oral Cavity [1, 9]: Yes
Dye in Larynx [1, 10]: Yes
Dye in Nasal Cavity [1, 10]: Yes
Dye in Nose Skin [1, 10]: Yes
Dye in Intestine [1, 11]: Yes
Dye in Larynx [1, 11]: Traces
Dye in Nasal Cavity [1, 11]: Yes
Dye in Oral Cavity [1, 11]: Traces
Dye in Stomach [1, 11]: ++ and +
Dye in Esophagus Lower [1, 12]: Yes/Yes
Dye in Esophagus Upper [1, 12]: Yes/Yes
Dye in Larynx [1, 12]: Yes
Dye in Nasal Cavity [1, 12]: Yes
Dye in Nose Skin [1, 12]: Yes
Dye in Oral Cavity [1, 12]: Yes
Dye in Trachea Lower [1, 12]: Yes/Yes
Dye in Trachea Upper [1, 12]: Yes/Yes
Dye in Intestine [1, 13]: Yes
Dye in Larynx [1, 13]: Yes
Dye in Nasal Cavity [1, 13]: Yes
Dye in Nose Skin [1, 13]: Yes
Dye in Oral Cavity [1, 13]: Yes
Dye in Stomach [1, 13]: ++ and +
Dye in Esophagus Lower [1, 14]: Yes/Yes
Dye in Esophagus Upper [1, 14]: Yes/Yes
Dye in Larynx [1, 14]: Yes
Dye in Lung [1, 14]: Traces
Dye in Nasal Cavity [1, 14]: Yes
Dye in Nose Skin [1, 14]: Yes
Dye in Oral Cavity [1, 14]: Yes
Dye in Stomach [1, 14]: ++ and +
Dye in Trachea Lower [1, 14]: Yes/Yes
Dye in Trachea Upper [1, 14]: Yes/Yes
Dye in Esophagus Lower [1, 15]: Yes/Yes
Dye in Esophagus Upper [1, 15]: Yes/Yes
Dye in Larynx [1, 15]: Yes
Dye in Lung [1, 15]: +
Dye in Nasal Cavity [1, 15]: Yes
Dye in Nose Skin [1, 15]: Yes
Dye in Oral Cavity [1, 15]: Yes
Dye in Trachea Lower [1, 15]: Yes/Yes
Dye in Trachea Upper [1, 15]: Yes/Yes
Dye in Esophagus Lower [1, 16]: Yes/Yes
Dye in Esophagus Upper [1, 16]: Yes/Yes
Dye in Larynx [1, 16]: Yes
Dye in Nasal Cavity [1, 16]: Yes
Dye in Nose Skin [1, 16]: Yes
Dye in Oral Cavity [1, 16]: Yes
Dye in Stomach [1, 16]: +
Dye in Esophagus Lower [1, 17]: Yes/Yes
Dye in Esophagus Upper [1, 17]: Yes/Yes
Dye in Larynx [1, 17]: Yes
Dye in Nasal Cavity [1, 17]: Yes
Dye in Nose Skin [1, 17]: Yes
Dye in Oral Cavity [1, 17]: Yes
Dye in Stomach [1, 17]: +
Dye in Esophagus Upper [1, 18]: Traces
Dye in Larynx [1, 18]: Yes
Dye in Nasal Cavity [1, 18]: Yes
Dye in Nose Skin [1, 18]: Yes
Dye in Oral Cavity [1, 18]: Yes
Dye in Esophagus Upper [1, 19]: Traces
Dye in Larynx [1, 19]: Yes
Dye in Nasal Cavity [1, 19]: Yes
Dye in Nose Skin [1, 19]: Yes
Dye in Oral Cavity [1, 19]: Yes
Dye in Trachea Upper [1, 19]: Traces
Dye in Larynx [1, 20]: Yes
Dye in Nasal Cavity [1, 20]: Yes
Dye in Nose Skin [1, 20]: Yes
Dye in Oral Cavity [1, 20]: Yes
Dye in Esophagus Lower [1, 21]: Yes/Yes
Dye in Esophagus Upper [1, 21]: Yes/Yes
Dye in Larynx [1, 21]: Yes
Dye in Lung [1, 21]: + and Traces
Dye in Nasal Cavity [1, 21]: Yes
Dye in Nose Skin [1, 21]: Yes
Dye in Stomach [1, 21]: +
Dye in Trachea Lower [1, 21]: Yes/Yes
Dye in Trachea Upper [1, 21]: Yes/Yes
Dye in Esophagus Lower [1, 22]: Yes/Yes
Dye in Esophagus Upper [1, 22]: Yes/Yes
Dye in Intestine [1, 22]: Yes
Dye in Larynx [1, 22]: Yes
Dye in Lung [1, 22]: +
Dye in Nasal Cavity [1, 22]: Yes
Dye in Nose Skin [1, 22]: Yes
Dye in Oral Cavity [1, 22]: Yes
Dye in Stomach [1, 22]: +
Dye in Trachea Lower [1, 22]: Yes/Yes
Dye in Trachea Upper [1, 22]: Yes/Yes
Dye in Esophagus Lower [1, 23]: Yes/Yes
Dye in Esophagus Upper [1, 23]: Yes/Yes
Dye in Larynx [1, 23]: Yes
Dye in Nasal Cavity [1, 23]: Yes
Dye in Nose Skin [1, 23]: Yes
Dye in Oral Cavity [1, 23]: Yes
Dye in Stomach [1, 23]: ++
Dye in Esophagus Lower [1, 24]: Traces
Dye in Esophagus Upper [1, 24]: Traces/
Dye in Intestine [1, 24]: Yes
Dye in Larynx [1, 24]: Yes
Dye in Nasal Cavity [1, 24]: Yes
Dye in Nose Skin [1, 24]: Yes
Dye in Oral Cavity [1, 24]: Yes
Dye in Stomach [1, 24]: ++ and +
Dye in Esophagus Lower [1, 25]: Yes/Yes
Dye in Esophagus Upper [1, 25]: Yes/Yes
Dye in Larynx [1, 25]: Yes
Dye in Nasal Cavity [1, 25]: Yes
Dye in Nose Skin [1, 25]: Yes
Dye in Oral Cavity [1, 25]: Yes
Dye in Stomach [1, 25]: ++
Dye in Trachea Lower [1, 25]: Yes/Yes; also recorded: Traces
Dye in Trachea Upper [1, 25]: Yes/Yes and Yes/
Dye in Esophagus Lower [1, 26]: Yes/Yes
Dye in Esophagus Upper [1, 26]: Yes/Yes
Dye in Larynx [1, 26]: Yes
Dye in Lung [1, 26]: + and ++
Dye in Nasal Cavity [1, 26]: Yes
Dye in Nose Skin [1, 26]: Yes
Dye in Oral Cavity [1, 26]: Yes
Dye in Stomach [1, 26]: +
Dye in Trachea Lower [1, 26]: Yes/Yes
Dye in Trachea Upper [1, 26]: Yes/Yes
Dye in Esophagus Lower [1, 27]: Yes/Yes
Dye in Esophagus Upper [1, 27]: Yes/Yes
Dye in Larynx [1, 27]: Yes
Dye in Nasal Cavity [1, 27]: Yes
Dye in Nose Skin [1, 27]: Yes
Dye in Oral Cavity [1, 27]: Yes
Dye in Stomach [1, 27]: +
Dye retention in nasal passages and sinuses by position ([1]; mice, prone versus supine position): the converse is true for mice
Dye retention in nasal passages and sinuses by alertness ([1]; mouse, alert versus anesthetized): an anesthetized state is preferred
Compound: Cc1cc(-c2ccc(/N=N/c3ccc4c(S(=O)(=O)[O-])cc(S(=O)(=O)[O-])c(N)c4c3O)c(C)c2)ccc1/N=N/c1ccc2c(S(=O)(=O)[O-])cc(S(=O)(=O)[O-])c(N)c2c1O.[Na+].[Na+].[Na+].[Na+] [Dye, Evans Blue Dye]
Dye in the stomach ([1]; 5 μl and 2 μl increments (Table 8)): reduced dye in the stomach at lower incremental doses than larger incremental doses
Dye reaching stomach and esophagus ([1]; optimal divided dose conditions for the mouse (Table 9)): essentially no dye reached the stomach and very little dye reached the esophagus
Dye retention in nasal passages and sinus cavities ([1]; series of low doses versus a single larger dose): more material can be retained in the nasal passages and sinus cavities than when a single larger dose is used
Dye retention in nasal passages and sinuses versus loss ([1]; when a lower dose is used): more dye is retained in the nasal passages and sinuses and less dye is lost to the esophagus, stomach, intestines and lungs
Dye retention in nasal passages and sinuses by alertness [2]: more dye is retained in the nasal passages and sinuses when administered to an alert chinchilla
Dye retention in nasal passages and sinuses by position [2]: more dye is retained in the nasal passages and sinuses in the chinchilla, when the dye is administered in the prone position than when administered in the supine position
